Experimental data published in PubChem BioAssay (NCI).
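These data come from cells grown in 96-well plates and exposed to compound for 48 hours at five concentrations. TGI: concentration producing complete growth inhibition.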

What was measured:
Assay in all cases: NCI tumour cell line growth inhibition, 48 h
SR leukemia = system: SR leukemia
CCRF-CEM leukemia = system: CCRF-CEM leukemia
MCF7 breast = system: MCF7 breast
HCT-116 colon = system: HCT-116 colon
HOP-62 NSCLC = system: HOP-62 NSCLC
SK-OV-3 ovarian = system: SK-OV-3 ovarian
MOLT-4 leukemia = system: MOLT-4 leukemia
HCC-2998 colon = system: HCC-2998 colon
UACC-62 melanoma = system: UACC-62 melanoma
CAKI-1 renal = system: CAKI-1 renal
UACC-257 melanoma = system: UACC-257 melanoma
MALME-3M melanoma = system: MALME-3M melanoma
LOX IMVI melanoma = system: LOX IMVI melanoma
HL-60(TB) leukemia = system: HL-60(TB) leukemia
SN12C renal = system: SN12C renal
SNB-19 CNS = system: SNB-19 CNS
UO-31 renal = system: UO-31 renal
SF-539 CNS = system: SF-539 CNS
OVCAR-3 ovarian = system: OVCAR-3 ovarian
NCI-H226 lung = system: NCI-H226 lung
KM12 colon = system: KM12 colon
COLO 205 colon = system: COLO 205 colon
HCT-15 colon = system: HCT-15 colon
ACHN renal = system: ACHN renal
HS 578T breast = system: HS 578T breast
BT-549 breast = system: BT-549 breast
A549 NSCLC = system: A549 NSCLC
SF-295 CNS = system: SF-295 CNS
SNB-75 CNS = system: SNB-75 CNS
SF-268 CNS = system: SF-268 CNS
EKVX NSCLC = system: EKVX NSCLC
SK-MEL-2 melanoma = system: SK-MEL-2 melanoma
IGROV1 ovarian = system: IGROV1 ovarian
OVCAR-5 ovarian = system: OVCAR-5 ovarian
OVCAR-8 ovarian = system: OVCAR-8 ovarian
NCI/ADR-RES ovarian = system: NCI/ADR-RES ovarian
OVCAR-4 ovarian = system: OVCAR-4 ovarian
NCI-H23 lung = system: NCI-H23 lung
HT29 colon = system: HT29 colon
RPMI-8226 leukemia = system: RPMI-8226 leukemia
MDA-N = system: MDA-N
RXF 393 renal = system: RXF 393 renal
T-47D breast = system: T-47D breast
DU-145 prostate = system: DU-145 prostate
MDA-MB-435 = system: MDA-MB-435
786-0 renal = system: 786-0 renal
K-562 leukemia = system: K-562 leukemia
M14 melanoma = system: M14 melanoma
SK-MEL-5 melanoma = system: SK-MEL-5 melanoma
HOP-92 NSCLC = system: HOP-92 NSCLC
PC-3 prostate = system: PC-3 prostate
NCI-H460 lung = system: NCI-H460 lung
NCI-H522 lung = system: NCI-H522 lung
SK-MEL-28 melanoma = system: SK-MEL-28 melanoma
SW-620 colon = system: SW-620 colon
A498 renal = system: A498 renal
MDA-MB-231 breast = system: MDA-MB-231 breast
TK-10 renal = system: TK-10 renal
U251 CNS = system: U251 CNS

Measured: TGI

COc1ccc(/C=C2\C[C@H]3[C@@H]4CC=C5C[C@@H](OC(C)=O)CC[C@]5(C)[C@H]4CC[C@]3(C)\C2=N\O)cc1OC
9.83 µM: SK-MEL-5 melanoma
27.2 µM: EKVX NSCLC
27.1 µM: COLO 205 colon
88.2 µM: RPMI-8226 leukemia
56.5 µM: NCI-H226 lung
91.6 µM: UO-31 renal
not listed: MDA-MB-231 breast | TK-10 renal | U251 CNS
> 100 µM: all other assays above

CSc1nc(Nc2ccccc2Cl)c2c(N)nn(C)c2n1
63.5 µM: T-47D breast
26 µM: ACHN renal
not listed: SR leukemia | MCF7 breast | HL-60(TB) leukemia | SF-539 CNS | SNB-75 CNS | HOP-92 NSCLC
> 100 µM: all other assays above
